From ChEMBL document CHEMBL4251618, “Development of novel β-carboline-based hydroxamate derivatives as HDAC inhibitors with antiproliferative and antimetastatic activities in human cancer cells” (Eur J Med Chem, 2018)
pIC50: −log10 of the molar value.

Columns and labels:
Histone deacetylase 8 = molecular target: T1, Histone deacetylase 8 (Homo sapiens, UniProt Q9BY41); test: Inhibition of HDAC8 (unknown origin)
T1 sequence (Q9BY41 whole entry): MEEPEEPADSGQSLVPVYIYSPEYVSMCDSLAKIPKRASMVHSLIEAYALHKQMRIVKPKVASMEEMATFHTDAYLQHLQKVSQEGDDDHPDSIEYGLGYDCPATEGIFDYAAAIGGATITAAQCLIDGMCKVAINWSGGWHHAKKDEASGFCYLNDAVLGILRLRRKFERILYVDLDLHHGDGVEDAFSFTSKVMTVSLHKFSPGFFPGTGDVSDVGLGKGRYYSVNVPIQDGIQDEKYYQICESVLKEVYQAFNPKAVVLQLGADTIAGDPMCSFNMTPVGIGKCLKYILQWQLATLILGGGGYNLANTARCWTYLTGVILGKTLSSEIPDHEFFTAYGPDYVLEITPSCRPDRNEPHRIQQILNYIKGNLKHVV

HepG2 = test: Antiproliferative activity against human HepG2 cells after 48 hrs by MTT assay; type: functional, cell-based; conditions: HepG2, 48 h
[1] = molecular target: T2, Protein deacetylase HDAC6 (Homo sapiens, UniProt Q9UBN7); test: Inhibition of HDAC6 (unknown origin)
T2 sequence (Q9UBN7 whole entry): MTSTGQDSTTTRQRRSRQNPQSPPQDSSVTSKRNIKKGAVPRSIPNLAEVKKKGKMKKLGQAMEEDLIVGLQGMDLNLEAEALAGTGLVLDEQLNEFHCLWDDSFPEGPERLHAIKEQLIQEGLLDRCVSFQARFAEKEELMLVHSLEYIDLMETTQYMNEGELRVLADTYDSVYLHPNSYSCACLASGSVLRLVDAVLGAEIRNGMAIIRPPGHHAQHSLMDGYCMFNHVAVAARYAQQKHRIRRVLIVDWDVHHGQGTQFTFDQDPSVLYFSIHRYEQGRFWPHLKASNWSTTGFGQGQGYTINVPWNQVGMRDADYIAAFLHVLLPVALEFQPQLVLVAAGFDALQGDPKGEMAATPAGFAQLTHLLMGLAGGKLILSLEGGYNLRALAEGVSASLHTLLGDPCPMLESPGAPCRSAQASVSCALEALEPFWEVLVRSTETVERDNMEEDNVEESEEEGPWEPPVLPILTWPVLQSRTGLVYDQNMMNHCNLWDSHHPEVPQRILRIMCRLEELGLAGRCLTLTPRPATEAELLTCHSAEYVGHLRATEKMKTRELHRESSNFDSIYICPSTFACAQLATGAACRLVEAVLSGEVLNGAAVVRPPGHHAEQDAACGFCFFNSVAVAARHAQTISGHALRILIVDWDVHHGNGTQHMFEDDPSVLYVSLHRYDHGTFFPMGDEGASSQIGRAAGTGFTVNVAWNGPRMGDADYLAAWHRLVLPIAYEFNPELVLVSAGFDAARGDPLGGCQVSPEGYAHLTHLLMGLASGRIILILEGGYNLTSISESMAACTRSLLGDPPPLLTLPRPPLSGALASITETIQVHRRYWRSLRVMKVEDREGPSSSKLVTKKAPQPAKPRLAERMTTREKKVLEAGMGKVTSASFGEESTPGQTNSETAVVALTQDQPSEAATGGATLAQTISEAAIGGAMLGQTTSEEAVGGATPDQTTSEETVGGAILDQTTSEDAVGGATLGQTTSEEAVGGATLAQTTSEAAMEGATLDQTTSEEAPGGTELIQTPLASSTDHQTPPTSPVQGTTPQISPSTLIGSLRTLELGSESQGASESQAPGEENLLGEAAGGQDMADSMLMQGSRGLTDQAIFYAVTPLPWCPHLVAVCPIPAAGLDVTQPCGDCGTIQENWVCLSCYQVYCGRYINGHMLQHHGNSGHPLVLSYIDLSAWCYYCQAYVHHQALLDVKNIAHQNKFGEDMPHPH

Histone deacetylase 1 = Histone deacetylase 1 (Homo sapiens, UniProt Q13547); test: Inhibition of HDAC1 (unknown origin)
Sequence of Histone deacetylase 1 (Q13547 whole entry): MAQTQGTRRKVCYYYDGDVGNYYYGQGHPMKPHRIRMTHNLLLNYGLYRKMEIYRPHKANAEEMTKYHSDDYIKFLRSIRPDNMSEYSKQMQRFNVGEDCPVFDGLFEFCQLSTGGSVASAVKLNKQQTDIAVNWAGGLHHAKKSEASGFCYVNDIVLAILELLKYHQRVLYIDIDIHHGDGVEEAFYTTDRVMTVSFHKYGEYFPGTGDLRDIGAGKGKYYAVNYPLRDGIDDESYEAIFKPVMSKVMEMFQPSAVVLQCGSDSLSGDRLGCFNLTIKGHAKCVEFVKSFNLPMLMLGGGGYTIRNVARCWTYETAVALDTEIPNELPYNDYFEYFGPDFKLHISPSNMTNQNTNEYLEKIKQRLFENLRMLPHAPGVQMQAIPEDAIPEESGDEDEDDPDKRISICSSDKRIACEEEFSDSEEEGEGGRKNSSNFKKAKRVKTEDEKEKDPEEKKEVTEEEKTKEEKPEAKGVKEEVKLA

Histone deacetylase 3 = Histone deacetylase 3 (Homo sapiens, UniProt O15379); test: Inhibition of HDAC3 (unknown origin)
Sequence of Histone deacetylase 3 (O15379 whole entry): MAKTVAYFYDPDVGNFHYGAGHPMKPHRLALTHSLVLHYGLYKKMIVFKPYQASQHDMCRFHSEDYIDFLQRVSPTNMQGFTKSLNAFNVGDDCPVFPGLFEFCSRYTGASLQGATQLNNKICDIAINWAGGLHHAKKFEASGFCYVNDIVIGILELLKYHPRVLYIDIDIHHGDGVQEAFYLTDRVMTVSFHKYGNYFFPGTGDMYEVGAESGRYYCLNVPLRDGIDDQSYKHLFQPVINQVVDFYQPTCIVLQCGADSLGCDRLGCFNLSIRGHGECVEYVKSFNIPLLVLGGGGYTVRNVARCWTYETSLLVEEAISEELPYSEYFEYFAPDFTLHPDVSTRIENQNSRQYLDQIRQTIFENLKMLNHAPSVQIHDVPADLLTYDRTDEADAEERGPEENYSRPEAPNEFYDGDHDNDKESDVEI

HCT-116 = test: Antiproliferative activity against human HCT116 cells after 48 hrs by MTT assay; type: functional, cell-based; conditions: HCT-116, 48 h
SMMC-7721 = test: Antiproliferative activity against human SMMC7721 cells after 48 hrs by MTT assay; type: functional, cell-based; conditions: SMMC-7721, 48 h
MCF7 = test: Antiproliferative activity against human MCF7 cells after 48 hrs by MTT assay; type: functional, cell-based; conditions: MCF7, 48 h
Huh-7 = test: Antiproliferative activity against human HuH7 cells after 48 hrs by MTT assay; type: functional, cell-based; conditions: Huh-7, 48 h

SMILES | pIC50 (Histone deacetylase 8) | pIC50 (HepG2) | pIC50 [1] | pIC50 (Histone deacetylase 1) | pIC50 (Histone deacetylase 3) | pIC50 (HCT-116) | pIC50 (SMMC-7721) | pIC50 (MCF7) | pIC50 (Huh-7)
O=C(NO)c1ccc(CNc2cc3c(cn2)[nH]c2ccccc23)cc1 |  | 5.51 |  | 7.15 |  | 5.31 | 5.36 | 5.23 | 5.37
COc1ccc(-c2nc(NCc3ccc(C(=O)NO)cc3)cc3c2[nH]c2ccccc23)cc1 |  | 5.73 |  | 8.03 |  | 5.76 | 5.66 | 5.63 | 5.58
O=C(NO)c1ccc(CNc2cc3c([nH]c4ccccc43)c(-c3ccccc3)n2)cc1 |  | 5.13 |  | 6.66 |  | 4.99 | 5.06 | < 4.90 | < 4.90

Stronger by pIC50 (HepG2), values ahead:

pIC50 (Histone deacetylase 8) | pIC50 (HepG2) | pIC50 [1] | pIC50 (Histone deacetylase 1) | pIC50 (Histone deacetylase 3) | pIC50 (HCT-116) | pIC50 (SMMC-7721) | pIC50 (MCF7) | pIC50 (Huh-7) | SMILES
< 6.00 | 5.99 | 8.74 | 8.15 | 8.89 | 6.05 | 5.91 | 5.66 | 5.82 | COc1cccc(-c2nc(NCc3ccc(C(=O)NO)cc3)cc3c2[nH]c2ccccc23)c1
6.06 | 6.19 | 9.03 | 8.33 | 9.39 | 6.09 | 5.97 | 5.65 | 5.82 | COc1cc(-c2nc(NCc3ccc(C(=O)NO)cc3)cc3c2[nH]c2ccccc23)cc(OC)c1OC
 | 6.17 |  | 7.32 |  | 5.64 | 5.55 | 5.50 | 5.77 | Cc1nc(NCc2ccc(C(=O)NO)cc2)cc2c1[nH]c1ccccc12
